Measured values taken from patent US20200179269A1, “VAPORIZABLE COMPOSITIONS COMPRISING CANNABINOL” (KANABO RESEARCH LTD., priority 2017, published 2020).

System: Loss of Righting Reflex (LORR) in mice
Test: Sleep induction model in mice: Loss of Righting Reflex (LORR) after Pentobarbital, sleep latency and sleep duration
Type: in vivo, mice BALB/c
Set-up: Sleep latency median / Sleep latency (mean) / Sleep duration median / Sleep duration (mean): unit not given here
Source text: The objective of the present study is to evaluate various cannabinoid mixtures with terpenes in the sleep induction model in mice and then in the second part optimize the doses.
Study Variables and End Points • Mortality and morbidity—once a day. • Body weight—during acclimation and before dosing. • Behavioral test—righting reflex—sleep latency and duration
The principle of the study is based on the ability of sleep promoting agents to shorten the time until Loss of Righting Reflex (LORR) occurs and prolong the presence of LORR in rodents treated with established anesthetizing agent.
Mice were be utilized and divided into 62 groups of three in each group.
Combinations of 3 different cannabinoids: CBN, CBD and THC and 2 terpenes: (β-myrcene and linalool were tested. Diazepam (2 mg/kg) was used as a positive control. Ethanol:Cremophor:Saline (1:1:18) was used as negative control. The items were dissolved in Ethanol:Cremophor:Saline. The items, positive and negative controls were IP injected. Three (or four) mice were used for each group. 5 cycles of experiments were performed. In Cycles 1 each cannabinoid at different concentrations was separately administered; in Cycle 2—combinations of the cannabinoids with different concentration were administered (4 mice per group were used for items), in Cycle 3—different terpenes at different concentration were administered, in Cycle 4—combinations of different cannabinoids and terpenes were administered and in Cycle 5—compositions with high content of cannabinoids and low content of terpenes were tested (4 mice per group).
Female mice BALB/c strain of 7 weeks age were used for the experiment. The mice were allowed to acclimatize for at least 5 days. Animals were fed ad libitum a commercial rodent diet (Teklad Certified Global 18% Protein Diet, Harlan cat #2018). Animals had free access to sterilized and acidified drinking water (pH between 2.5 and 3.5) obtained from the municipality supply. Animals were housed under standard laboratory conditions, air conditioned and filtered (HEPA F6/6) with adequate fresh air supply (Minimum 15 air changes/hour). Animals were kept in a climate controlled environment. Temperatures range were 18-24° C. and relative humidity range 30-70% with a 12 hours light and 12 hours dark cycle (6 AM/6 PM).
The duration of the study was one day per cycle. The study was conducted in five cycles (see Tables 10-15). Each Test Item or vehicle formulation was administrated to three (or four) animals per group. Morbidity and mortality was checked once a day.
Sleeping Test was performed according to Pharmaseed's SOP No. 130: “Loss of Righting Reflex”. Mice were injected intraperitoneally (IP) with the positive control Diazepam (2 mg/kg, IP), vehicle or with the Test Items 30 minutes prior to Pentobarbital (40 mg/kg, IP) administration. Observation of the mouse begun immediately after administration of Pentobarbital. Once the mouse was asleep (the loss of righting reflex—LORR), it was be transferred to a home cage and placed on its back. Mice was considered awake when they could successfully upright themselves (all four feet in contact with the surface). Once a mouse righted itself, it was placed on its back once again and allowed to right a second time for confirmation. Expected sleep onset and duration of the negative control group was 5-8 min and 20-25 min, respectively. For positive control expected sleep onset and duration were 3-4 min and 40-50 min, respectively.
While the animals were asleep, fatty ophthalmic ointment (e.g. Duratears®) was be applied to their eyes to avoid drying of the eye. Also, since Diazepam might cause hypothermia, the cages with the sleeping mice were be placed on a heating pad.
The following parameters were be recorded and served as an index of sleep behavior: • Sleep latency—time required to sleep induction. • Sleep duration.
At termination, the animals were sacrificed by CO2 asphyxiation.

[1] = Cycle 1, high doses (above 5 mg/kg)
[2] = Cycle 4, group 43F, Diazepam 2 mg/kg

C=C(C)[C@@H]1CCC(C)=C[C@H]1c1c(O)cc(CCCCC)cc1O [CBD, cannabidiol]
effect on sleeping (Cycle 1, 1 mg/kg dose): assisted in sleeping | Sleep duration (mean) (Cycle 1, dose 1 mg/kg IP): (14) | Sleep duration median (Cycle 1, dose 1 mg/kg IP): 9 | Sleep latency (mean) (Cycle 1, dose 1 mg/kg IP): (13) | Sleep latency median (Cycle 1, dose 1 mg/kg IP): 16 | Sleep duration (mean) (Cycle 1, dose 5 mg/kg IP): (49) | Sleep duration median (Cycle 1, dose 5 mg/kg IP): 49 | Sleep latency (mean) (Cycle 1, dose 5 mg/kg IP): (6) | Sleep latency median (Cycle 1, dose 5 mg/kg IP): 6 | Sleep duration (mean) (Cycle 1, dose 20 mg/kg IP): (48) | Sleep duration median (Cycle 1, dose 20 mg/kg IP): 48 | Sleep latency (mean) (Cycle 1, dose 20 mg/kg IP): (8) | Sleep latency median (Cycle 1, dose 20 mg/kg IP): 9 | Sleep duration (mean) (Cycle 1, dose 50 mg/kg IP): (84) | Sleep duration median (Cycle 1, dose 50 mg/kg IP): 68 | Sleep latency (mean) (Cycle 1, dose 50 mg/kg IP): (6) | Sleep latency median (Cycle 1, dose 50 mg/kg IP): 6

CCCCCc1cc(O)c2c(c1)OC(C)(C)[C@@H]1CCC(C)=C[C@@H]21 [THC, tetrahydrocannabinol]
state of the mice after awakening (Cycle 1): much more vivid after awakening | Sleep duration (mean) (Cycle 1, dose 0.5 mg/kg IP): (6) | Sleep duration median (Cycle 1, dose 0.5 mg/kg IP): 8 | Sleep latency (mean) (Cycle 1, dose 0.5 mg/kg IP): (4) | Sleep latency median (Cycle 1, dose 0.5 mg/kg IP): 4 | Sleep duration (mean) (Cycle 1, dose 2 mg/kg IP): (12) | Sleep duration median (Cycle 1, dose 2 mg/kg IP): 0 | Sleep latency (mean) (Cycle 1, dose 2 mg/kg IP): (20) | Sleep latency median (Cycle 1, dose 2 mg/kg IP): 20 | Sleep duration (mean) (Cycle 1, dose 5 mg/kg IP): (10) | Sleep duration median (Cycle 1, dose 5 mg/kg IP): 9 | Sleep latency (mean) (Cycle 1, dose 5 mg/kg IP): (25) | Sleep latency median (Cycle 1, dose 5 mg/kg IP): 24 | Sleep duration (mean) (Cycle 1, dose 10 mg/kg IP): (21) | Sleep duration median (Cycle 1, dose 10 mg/kg IP): 11 | Sleep latency (mean) (Cycle 1, dose 10 mg/kg IP): (11) | Sleep latency median (Cycle 1, dose 10 mg/kg IP): 11 | effect on sleep duration [1]: decreases the sleep duration | effect on sleep latency (time required for falling asleep) [1]: increases the sleep latency | effect on onset of sleep (Cycle 1, medium concentrations (2-5 mg/kg)): increases the onset of sleep | effect of addition to the combination of CBN, CBD and terpene (Cycle 4, 0.5 mg/kg): reduced the observed effect

C=CC(C)(O)CCC=C(C)C (stereo not shown) [Linalool, linalool]
Sleep duration (mean) (Cycle 3, Dose 20, IP): (5.3) | Sleep duration median (Cycle 3, Dose 20, IP): 6 | Sleep latency (mean) (Cycle 3, Dose 20, IP): (5) | Sleep latency median (Cycle 3, Dose 20, IP): 5 | Sleep duration (mean) (Cycle 3, Dose 100, IP): (5.3) | Sleep duration median (Cycle 3, Dose 100, IP): 6 | Sleep latency (mean) (Cycle 3, Dose 100, IP): (5.5) | Sleep latency median (Cycle 3, Dose 100, IP): 5 | Sleep duration (mean) (Cycle 3, Dose 300, IP): (97.3) | Sleep duration median (Cycle 3, Dose 300, IP): 120 | Sleep latency (mean) (Cycle 3, Dose 300, IP): (2) | Sleep latency median (Cycle 3, Dose 300, IP): 2 | dose response of the terpene in combination with CBN and CBD (Cycle 4): evident dose response | Sleep duration (mean) (Cycle 5, dose 10 mg/kg IP): (6) | Sleep duration median (Cycle 5, dose 10 mg/kg IP): 6.5 | Sleep latency (mean) (Cycle 5, dose 10 mg/kg IP): (8) | Sleep latency median (Cycle 5, dose 10 mg/kg IP): 8

CN1C(=O)CN=C(c2ccccc2)c2cc(Cl)ccc21 [Diazepam, reference compound]
state of the mice after awakening (Cycle 1): remained dizzy for a prolonged period of time | Sleep duration (mean) (Cycle 1, dose 2 mg/kg IP): (94) | Sleep duration median (Cycle 1, dose 2 mg/kg IP): 94 | Sleep latency (mean) (Cycle 1, dose 2 mg/kg IP): (3) | Sleep latency median (Cycle 1, dose 2 mg/kg IP): 2 | Sleep duration (mean) (Cycle 2, dose 2 mg/kg IP): (51.7) | Sleep duration median (Cycle 2, dose 2 mg/kg IP): 56 | Sleep latency (mean) (Cycle 2, dose 2 mg/kg IP): (4.3) | Sleep latency median (Cycle 2, dose 2 mg/kg IP): 4 | Sleep duration (mean) (Cycle 3, Dose 2, IP): (66.3) | Sleep duration median (Cycle 3, Dose 2, IP): 60 | Sleep latency (mean) (Cycle 3, Dose 2, IP): (2.3) | Sleep latency median (Cycle 3, Dose 2, IP): 2 | Sleep duration (mean) [2]: (76) | Sleep duration median [2]: 69 | Sleep latency (mean) [2]: (3.3) | Sleep latency median [2]: 3

C=CC(=C)CCC=C(C)C [Myrcene, β-myrcene]
Sleep duration (mean) (Cycle 3, Dose 20, IP): (8.7) | Sleep duration median (Cycle 3, Dose 20, IP): 9 | Sleep latency (mean) (Cycle 3, Dose 20, IP): (4.7) | Sleep latency median (Cycle 3, Dose 20, IP): 5 | Sleep duration (mean) (Cycle 3, Dose 100, IP): (7.3) | Sleep duration median (Cycle 3, Dose 100, IP): 7 | Sleep latency (mean) (Cycle 3, Dose 100, IP): (5) | Sleep latency median (Cycle 3, Dose 100, IP): 5 | Sleep duration (mean) (Cycle 3, Dose 300, IP): (61.3) | Sleep duration median (Cycle 3, Dose 300, IP): 31 | Sleep latency (mean) (Cycle 3, Dose 300, IP): (3) | Sleep latency median (Cycle 3, Dose 300, IP): 3 | dose response of the terpene in combination with CBN and CBD (Cycle 4): evident dose response | Sleep duration (mean) (Cycle 5, dose 10 mg/kg IP): (5) | Sleep duration median (Cycle 5, dose 10 mg/kg IP): 5 | Sleep latency (mean) (Cycle 5, dose 10 mg/kg IP): (5) | Sleep latency median (Cycle 5, dose 10 mg/kg IP): 5

CCCCCc1cc(O)c2c(c1)OC(C)(C)c1ccc(C)cc1-2 [CBN, 6,6,9-trimethyl-3-pentylbenzo[c]chromen-1-ol]
dose response for duration of sleep parameter (Cycle 1): moderate dose response | Sleep duration (mean) (Cycle 1, dose 0.1 mg/kg IP): (26) | Sleep duration median (Cycle 1, dose 0.1 mg/kg IP): 34 | Sleep latency (mean) (Cycle 1, dose 0.1 mg/kg IP): (5) | Sleep latency median (Cycle 1, dose 0.1 mg/kg IP): 4 | Sleep duration (mean) (Cycle 1, dose 0.5 mg/kg IP): (14) | Sleep duration median (Cycle 1, dose 0.5 mg/kg IP): 15 | Sleep latency (mean) (Cycle 1, dose 0.5 mg/kg IP): (8) | Sleep latency median (Cycle 1, dose 0.5 mg/kg IP): 8 | Sleep duration (mean) (Cycle 1, dose 2 mg/kg IP): (23) | Sleep duration median (Cycle 1, dose 2 mg/kg IP): 25 | Sleep latency (mean) (Cycle 1, dose 2 mg/kg IP): (6) | Sleep latency median (Cycle 1, dose 2 mg/kg IP): 6 | Sleep duration (mean) (Cycle 1, dose 5 mg/kg IP): (31) | Sleep duration median (Cycle 1, dose 5 mg/kg IP): 32 | Sleep latency (mean) (Cycle 1, dose 5 mg/kg IP): (9) | Sleep latency median (Cycle 1, dose 5 mg/kg IP): 8
